The text below walks through data of patent US20250136617A1 (The Regents of the University of Colorado, A Body Corporate, priority 2022, published 2025).

SMILES strings stand for the structures. “Also recorded” adds a separate entry of the source. Like-named read-outs stand apart in the source and are kept apart here.

Holding throughout (format): cell-based
Test [1] relates to CEM-CCRF human lymphoblast cells. Put plainly: Transwell migration assay in CEM-CCRF lymphoblasts. The procedure, abridged: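 CEM-CCRF cells at 5.0×10^5 cells/mL in RPMI 1640, preincubated 1 h at 37 °C, 5% CO2, then allowed to migrate in a 96-well transwell system for 3 h at 37 °C. Migrated cells in the receiver tray quantified by ATPLite luminescence.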
A further test deals with miR-15b. Briefly: qPCR of miR-15b expression in human dermal fibroblasts. The settings on record: 24 hours, 0.1, 1 and 10 uM. The procedure: An additional secondary screen was performed to further validate activity of UCUF-728 as a selective CXCR4 receptor modulator. Human diabetic and non-diabetic fibroblasts were cultured with increasing concentrations of the compound. The cells were incubated for 24 hours and then total cellular RNA was isolated to examine the ability of the compound to correct the abnormal expression of miR15b, and miR29a. It has been shown that human diabetic skin has increased miR-15b expression at baseline compared to non-diabetic skin (Xu et al. “The role of microRNA-15b in the impaired angiogenesis in diabetic wounds.” Wound Repair Regen 2014; 22(5):671-7).
Diabetic and non-diabetic fibroblasts were cultured with increasing concentrations of a UCUF-965 compound. The cells were incubated for 24 hours and then total cellular RNA was isolated to examine the ability of the compound to correct the abnormal expression of miR15b, and miR29a. Angiogenesis is regulated by hypoxia and the production of growth factors such as Hypoxia-inducible Factor 1-alpha (HIF-1a) and Vascular Endothelial Growth Factor (VEGF). […] MicroRNA-15b (miR-15b) has been described as a key negative modulator of angiogenesis. Under hypoxia, miR-15b is repressed, resulting in an increased level of VEGF. Over-expression of miR-15b also markedly attenuates hypoxia induced vessel tube formation and cell migration. […]
For orientation: Real-time PCR tracks product formation cycle by cycle.

Another test deals with miR-29a. Put plainly: miR-29a expression in murine fibroblasts. Conditions: 24 h; listed as UCUF-965. The procedure:
Total RNA was extracted with TRIzol reagent (Invitrogen, Carlsbad, CA, USA) according to the manufacturer's established protocol. RNA was converted into cDNA using the SuperScript First-Strand Synthesis System (Invitrogen, Life Technologies). Primers and probes for mouse miR-15b and miR-29a were acquired from Applied Biosystems TaqMan gene expression assay (Applied Biosystems, Foster City, CA). Quantitative PCR was performed on a BIO-RAD CFX96 according to the manufacturer's instructions. Quantitative values of genes of interest are normalized based on U6. Samples (n=5 per group) were amplified in triplicate and results were averaged for each individual sample. The ΔΔCT method was used to calculate relative gene expression. Results are reported as mean±SD.
The expression of specific micro-RNA levels reported to be crucial in the wound-healing process were measured in order to validate and correlate the in vitro activity of UCUF-965 as a selective CXCR4 receptor modulator to micro-RNA expression. Murine diabetic and non-diabetic fibroblasts were cultured with increasing concentrations of the compound. The cells were incubated for 24 h and then total cellular RNA was isolated to examine the ability of the compound to correct the abnormal expression levels of miR-15b, miR-29a, and miR-146a. […]

The subject of a further test is miR-146a. Briefly: miR-146a expression in murine fibroblasts. The settings on record: 24 h; listed as UCUF-965. The procedure: The expression of specific micro-RNA levels reported to be crucial in the wound-healing process were measured in order to validate and correlate the in vitro activity of UCUF-965 as a selective CXCR4 receptor modulator to micro-RNA expression. Murine diabetic and non-diabetic fibroblasts were cultured with increasing concentrations of the compound. The cells were incubated for 24 h and then total cellular RNA was isolated to examine the ability of the compound to correct the abnormal expression levels of miR-15b, miR-29a, and miR-146a. The effect of UCUF-965 on expression of miR-15b, which inhibits angiogenesis and wound repair was examined.

In the case of `COc1ccc(OC)c(NS(=O)(=O)c2ccc(-c3cnc(C4CC4)o3)cc2)c1` [Oxazole Entry 19, 4-(2-Cyclopropyloxazol-5-yl)-N-(2,5-dimethoxyphenyl)benzenesulfonamide], in test [1] (listed as UCUF-728), the “migration activity (words)” value is “induced migration with similar EC50 and Emax as the B-arrestin recruitment activity; also recorded: SDF-1α-mediated response was potentiated; also recorded: dose-dependent partial activation of CEM-CCRF cell migration”. The “miR-15b expression” value with miR-15b (listed as UCUF-728) is “decreased expression of miR-15b; also recorded: potent suppression of miR-15b expression”.
In the case of `CCOc1ccccc1-c1nnc2n1N=C(c1ccc(N3CCCC3)cc1)CS2` [Thiadiazine Entry 23, 3-(2-ethoxyphenyl)-6-(4-(pyrrolidin-1-yl)phenyl)-7H-[1,2,4]triazolo[3,4-b][1,3,4]thiadiazine], the “fold lower potency in migration vs β-arrestin recruitment assay” value in test [1] was 10 fold. The “migration activity (words)” value in test [1] is listed as “partial activator of CXCR4-mediated cell migration”. Besides, the EC50 in test [1] (Homo sapiens, read-out: Migration log EC50, log value, n=3 (converted)) was 0.398 µM; in test [1] (read-out: Migration CEM EC50, listed as UCUF-965), 0.4 µM. Moreover, in test [1] (listed as UCUF-965), the “Migration CEM Emax (%)” value amounted to 31%. The “miR-15b expression” value in the test on miR-15b (listed as UCUF-965) was “decreased expression of miR-15b”. Besides, the “miR-29a expression” value in the test on miR-29a was “significant decrease of miR-29a levels; also recorded: suppression of miR15b and miR29a”. Moreover, the “miR-146a expression” value in the test with miR-146a is “increase of miR-146a levels; also recorded: induction of miR146a”.
